Patent US20120065261A1, “Creatine compositions for skin treatment” (Avicena Group, Inc., priority 2006, published 2012)

Columns and labels:
[1] = system: p53 expression in human dermal fibroblasts; assay: p53 expression induced by UVB irradiation of human dermal fibroblasts (sandwich ELISA); format: cell-based; conditions: 50 μg/ml; UVB 0.15 mW/cm^2; 4 hours accumulation
Procedure: Confluent human dermal fibroblasts were trypsinized, counted and plated at 750,000 cells/well in eight 6-well plates in phenol-free DMEM medium (4 g/L glucose) supplemented with 5% serum. After three hours, creatine ascorbate, creatine monohydrate, creatine pyruvate, ascorbic acid and magnesium ascorbyl phosphate in a concentration of 50 μg/ml were added and cells were incubated overnight at 37° C. in 5% CO2 atmosphere. After 24 hours, p53 protein was induced by UVB irradiation at 0.15 mW/cm^2 for […] and was allowed to accumulate for 4 hours. The cells were then lyzed and total p53 was quantified by sandwich ELISA. The p53 values were standardized with regard to total protein values determined with Bradford reagent. For a description of this assay, see Carlisle et al. “Toxicological Sciences” 55:60 (2000).

[2] = Stability of aqueous solutions at pH 4.0 (HPLC); format: physicochemical; conditions: 10 mg/mL, pH 4.0, 5 days at room temperature
Procedure: Aqueous solutions of 10 mg/mL of creatine ascorbate, creatine monohydrate, creatine pyruvate, ascorbic acid and magnesium ascorbyl phosphate were prepared in Type I water and brought to pH 4.0 (±0.1) by adding acetic acid (creatine ascorbate, creatine monohydrate and magnesium ascorbyl phosphate) or sodium hydroxide (ascorbic acid and creatine pyruvate). The solutions were incubated for 5 days at room temperature and were subsequently lyophilized, redissolved within 60 minutes of analysis and analyzed by isocratic HPLC on a C18 RF column (250 mm×4.6 mm) at 1 mL/min.

human dermal fibroblasts = assay: Mitochondrial metabolism in human dermal fibroblast cultures (MTT assay); format: cell-based; conditions: for inhibition of mitochondrial metabolism / stimulatory effect on mitochondrial metabolism / stimulation of mitochondrial metabolism: freshly prepared; for inhibition of mitochondrial metabolism: 100 μg/mL and 1000 μg/mL; for stimulatory effect on mitochondrial metabolism: concentrations tested; for effect on mitochondrial metabolism: preincubated solutions (pH 4.0, five days)
Procedure: The purpose of this assay was to determine the effect creatine ascorbate, creatine monohydrate and creatine pyruvate on the mitochondrial metabolism on the entire cell culture using an MTT assay. The MTT assay measures the activity of succinate dehydrogenase, a key enzyme in the respiratory electron transport chain in mitochondria.
Two sets of aqueous solutions of 10 mg/mL of creatine ascorbate, creatine monohydrate, creatine pyruvate, ascorbic acid and magnesium ascorbyl phosphate were prepared in Type I water. The first set of solutions were prepared immediately before being added to cell cultures. The second set of solutions were preincubated at pH 4.0 (±0.1) five days, then the solutions were lyophilized and the substrates were redissolved in water at 10 mg/mL prior to being added to the cell cultures. Normal human dermal fibroblasts (passage 5, lot number 7F1254, Cambrex, Walkersville, Md.) were seeded in a 96-well plate in phenol red-free DMEM medium (high glucose) containing 2.5% fetal calf serum at 2500 cells per well and test materials, both freshly prepared solutions and preincubated solutions, were added 24 hours later. At the end of the incubation period MTT (3-(4,5-dimethylthiazol-2-yl)-2,5-diphenyltetrazolium bromide) was added to the cell cultures and incubation was pursued for an additional three hours. Culture media were then discarded, the cells were rinsed and the intracellular MTT reduction product, formazan, was solubilized in ethanol/acetic acid. The colorimetric signal proportional to the mitochondrial activity in the cell cultures was measured with a microplate spectrophotometer at 570 nm. For references describing this method, see Berridge et al. “Arch. Biochem. Biophys.” 303:474-482 (1993) and Murimaki et al. “Biochem. Pharmacol.” 44:2191-2197 (1992).

[3] = system: Clostridium collagenase IV; assay: Metalloproteinase (collagenase) activity, Enzcheck kit with quenched fluorescent gelatin; format: biochemical; conditions: after incubation of 60 minutes
Procedure: Metalloproteinase (collagenase) activity was measured with Enzcheck kit from Molecular Probes using quenched fluorescent gelatin and Clostridium collagenase IV, a generic collagenase. Creatine ascorbate, creatine monohydrate, creatine pyruvate, ascorbic acid and magnesium ascorbyl phosphate, in concentrations of 1000 μg/mL, 100 μg/mL and 10 μg/mL, were incubated in the presence of a collagenase substrate (quenched fluorescing-linked gelatin) and in the presence of the proteolytic enzyme. Phenantroline, a potent metalloproteinase inhibitor was used as a positive control. The kinetics of the release of the digested, fluorescent gelatin were measured at excitation/emission wavelengths of 485/530 nm.

[4] = system: type I collagen levels in human dermal fibroblasts; assay: Type I collagen in human dermal fibroblast conditioned medium (sandwich ELISA); format: cell-based; conditions: for levels of type I collagen: freshly prepared solutions
Procedure: Normal human dermal fibroblasts (passage 5, lot number 7F1245, Cambrix, Walkersville, Md.) were seeded in a 96-well plate in DMEM medium (high glucose) containing 5% fetal calf serum and grown to late subconfluent stage. Two sets of aqueous solutions of 10 mg/mL of creatine ascorbate, creatine monohydrate, creatine pyruvate, ascorbic acid and magnesium ascorbyl phosphate were prepared in Type I water. The first set of solutions were prepared immediately before being added to cell cultures. The second set of solutions were preincubated at pH 4.0 (±0.1) five days, then the solutions were lyophilized and the substrates were redissolved in water at 10 mg/mL prior to being added to the cell cultures. Both the freshly prepared solutions and the solutions of preincubated test materials were administered to the cells, and cell culture conditioned media was harvested 5 days after the start of the experiment and tested for type I collagen by sandwich ELISA using affinity purified antibodies, followed by streptavidin-avidin-HRP conjugate and ABTS, according to standard ELISA protocol. The colorimetric signal proportional to collagen content was measured with a microplate spectrophotometer at 405 nm. For references describing this method, see Dobek et al. “J. Dermatol. Sci.” 8:18 (1994) and Zhao et al. “Phytomedicine” 12:132 (2005).

Mushroom tyrosinase = assay: Tyrosinase activity in vitro (L-Dopa substrate); format: biochemical; conditions: for inhibition of tyrosinase activity compared to the control: 5 μg/mL
Procedure: Tyrosinase activity was measured according to the method described by Pomerantz “Biochem. Biophys. Res. Commun.” 16(2):188-194 (1964). Mushroom tyrosinase stock solution was prepared in PBS at 2000 U/mL and stored at […] in 1 mL aliquots. Final concentration was 5 U/well (25 U/mL). Creatine ascorbate, creatine monohydrate, creatine pyruvate, ascorbic acid and magnesium ascorbyl phosphate were dissolved in PBS and further dilutions were made with Type I water. L-Dopa stock solution was 20 mM. The tyrosinase substrate was prepared in PBS. The assays were performed in a 96-well microtiter plates and read at 490 nm.

[5] = system: UV-induced lipid peroxidation; assay: UV-induced lipid peroxidation of lecithin dispersions (TBARS); format: biochemical; conditions: 500 μg/mL; UVB irradiation 3 hours
Procedure: Test materials were added to dispersions of lecithin (a natural phospholipid) and irradiated with UVB light (11,000 μW/cm^2 at the source). After 3 hours, trichloroacetic acid and thiobarbituric acids were added and the concentration of Thiobarbituric Acid Reactive Substance (TBARS), such as malondialdehyde, was measured spectroscopically (malonaldehyde is a breakdown product generated spontaneously from oxidized lipid) at 550 nm using an UV microplate reader. For references describing this method, see Pelle et al. “Arch. Biochem. Biophys.” 283:234-40 (1990); Wang et al. “J. Ethnopharmacol.” 82:169-175 (2002).

[6] = highest concentration, 1000 μg/mL

Molecule	effect on p53 expression induced by UVB irradiation [1]	loss of the absorbance peak / decrease of absorption [2]	inhibition of mitochondrial metabolism (human dermal fibroblasts)	stimulatory effect on mitochondrial metabolism (human dermal fibroblasts)	inhibition of collagenase activity compared to the control [3]	levels of type I collagen ([4]; 10 μg/mL and 100 μg/mL)	levels of type I collagen [4, 6]	effect on mitochondrial metabolism (human dermal fibroblasts)	inhibition of tyrosinase activity compared to the control (Mushroom tyrosinase)	further results
O=C1O[C@H]([C@@H](O)CO)C(O)=C1O [ascorbic acid, reference compound]	no effect	28%	inhibited mitochondrial metabolism	did not have a stimulatory effect	39%	–	–	–	–	inhibitory effect on mitochondrial metabolism (human dermal fibroblasts; preincubated, concentration not given): 24%
CN(CC(=O)O)C(=N)N.O [creatine monohydrate]	significantly inhibited	–	–	–	Neither creatine monohydrate nor magnesium ascorbyl phosphate showed any inhibitory activity	moderately increased	better than creatine ascorbate and ascorbic acid	stimulated mitochondrial metabolism, although not to the extent of the freshly prepared creatine monohydrate	–	stimulation of mitochondrial metabolism (human dermal fibroblasts; 10 μg/mL): 0%; stimulation of mitochondrial metabolism (human dermal fibroblasts; 100 μg/mL): 15%; stimulation of mitochondrial metabolism (human dermal fibroblasts; 1000 μg/mL): 28%
O=C1O[C@H]([C@@H](O)CO)C([O-])=C1OP(=O)([O-])[O-].O=C1O[C@H]([C@@H](O)CO)C([O-])=C1OP(=O)([O-])[O-].[Mg+2].[Mg+2].[Mg+2] [magnesium ascorbyl phosphate, reference compound]	significantly inhibited	–	–	greatest stimulatory activity	Neither creatine monohydrate nor magnesium ascorbyl phosphate showed any inhibitory activity	–	–	exhibited stimulation	–	levels of type I collagen ([4]; all concentrations, 5 days): large increase; stimulation of type I collagen ([4]; results of both assays (fresh and preincubated)): strong stimulation
creatine ascorbate	significantly inhibited	–	inhibited mitochondrial metabolism	did not have a stimulatory effect	11.5%	significantly increased	significantly lower	superior to preincubated ascorbic acid	26%	tyrosinase inhibitory activity compared with reference substances (Mushroom tyrosinase): lower than the activity of ascorbic acid and was similar to the activity of magnesium ascorbyl phosphate; inhibitory effect on the tyrosinase activity (Mushroom tyrosinase; 500 μg/mL and 50 μg/mL): significant inhibitory effect; stimulation of type I collagen compared with reference substances ([4]; 100 μg/mL): comparable to that of magnesium ascorbyl phosphate and better than ascorbic acid; stimulation of type I collagen levels above the non-treated control (water) ([4]; dose-dependent, conclusion of both assays (fresh and preincubated)): about 50%; degradation in aqueous solution [2]: minor to no degradation; inhibition of lipid peroxidation [5]: 21%
creatine pyruvate	significantly inhibited	42%	17%	–	27%	moderately increased	better than creatine ascorbate and ascorbic acid	not to be inhibitory	no inhibition	inhibition of tyrosinase activity (Mushroom tyrosinase; 50 μg/mL): 10%; inhibition of tyrosinase activity (Mushroom tyrosinase; 500 μg/mL): 100%
